According to patent US7244767B2 (priority 1998, dated 2007):
Several values for one entry are separate records, joined by “and”; a condition that tells them apart may be missing. Identical values can stand only once. Like-named read-outs stand apart in the source and are kept apart here.

How the values were obtained:
[1] = tested on: MCF-7 cells; assay: Proliferation of human breast carcinoma cells, [3H]-thymidine incorporation, MCF-7; assay type: cell-based; conditions: MCF-7, [3H]-thymidine incorporation
Method: (§1) Human breast carcinoma cells MCF-7, EFM-19 and T-47D were used. The cells were cultured and the tests were carried out as described previously [materials and methods L. De Petrocellis et al. (1998) Proc. Natl. Acad. Sci. U.S.A., 95: 8375-8380]. The activity with respect to the proliferation of the tumour cells was evaluated on the basis of the incorporation of [^3H]-thimidine. The results are expressed as IC50 in μM.

[2] = tested on: EFM-19 cells; assay: Proliferation of human breast carcinoma cells, [3H]-thymidine incorporation, EFM-19; assay type: cell-based; conditions: EFM-19, [3H]-thymidine incorporation
Method: as §1

[3] = tested on: T-47D cells; assay: Proliferation of human breast carcinoma cells, [3H]-thymidine incorporation, T-47D; assay type: cell-based
Method: as §1

[4] = tested on: DU-145 cells; assay: Proliferation of human prostate carcinoma cells DU145 with prolactin, cell count; assay type: cell-based
Method: Human prostate carcinoma cells DU145 were used. The cells were cultured as described previously [materials and methods T. Janssen et al. (1996) Cancer, 77: 144-149].
The cells were then incubated in 96-well plates with Eagle's Minimal Essential Medium (MEM) supplemented with 10% foetal calf serum free of endogenous steroids. After 24 hours, the medium was removed and replaced with a medium containing prolactin (PRL) (1 mIU/ml of medium). The layer of cells was trypsinized and the cells were counted by haemocytometry.
The results are expressed as IC50 in μM.

[5] = tested on: EFM-19 cells; assay: Synergistic effect of PEA on antiproliferative activity in EFM-19 cells; assay type: cell-based, human; conditions: for Proliferative activity %: control = 100
Method: as §1
Human breast carcinoma cells EFM-19 were used. The test was carried out as indicated in Example C above.

[6] = biological target: T1, cannabinoid receptor CB1 (Mus musculus, UniProt P47746); assay: Binding to cannabinoid receptor CB1, displacement of [3H]SR141716A on N18TG2 cell membranes; conditions: 300 pM [3H]SR141716A, 90 min at 30° C., read-out: Ki, CB1 receptor, N18TG2 + cells, [3H]SR141716A ligand
T1 construct: endogenous in cells; host or cells: N18TG2 mouse neuroblastoma cells
Method: Mouse neuroblastoma cells N18TG2 which selectively express the cannabinoid receptor CB1 and rat leukaemia basophil cells RBL-2H3+ which selectively express the cannabinoid receptor CB2 were used. […] The binding tests were carried out with membranes of the said cells resuspended in 50 mM pH 7.0 Tris buffer; 2.5 mM mgCl2; 0.8 mM EDTA; 0.05% bovine serum albumin (BSA); 0.01% ethanol and in the presence of 100 μM phenylmethylsulphonyl fluoride (PMSF; sigma) using 300 pM of [^3H]SR141716A and [^3H]WIN55,212-2, respectively, as ligand.
(§2) The membranes were incubated for 90 min at 30° C., filtered on glass microfibre filters (GFC-Whatman) and the radioactivity was measured by liquid scintillation. The specific binding was calculated using either 10 μM SR141716A or 10 μM HU-210 (obtained from Prof. R. Mechoulam, Hebrew University Jerusalem). The Ki values were calculated using the Chang-Prusoff equation and expressed as concentration μM.

[7] = biological target: T2, cannabinoid receptor CB2 (Rattus norvegicus, UniProt Q9QZN9); assay: Binding to cannabinoid receptor CB2, displacement of [3H]WIN55,212-2 on RBL-2H3 cell membranes; conditions: read-out: Ki, CB2 receptor, RBL-2H3 + cells, [3H]WIN55,212-2 ligand
T2 construct: endogenous in cells; host or cells: RBL-2H3 rat basophilic leukaemia cells
T2 sequence (Q9QZN9 1-360): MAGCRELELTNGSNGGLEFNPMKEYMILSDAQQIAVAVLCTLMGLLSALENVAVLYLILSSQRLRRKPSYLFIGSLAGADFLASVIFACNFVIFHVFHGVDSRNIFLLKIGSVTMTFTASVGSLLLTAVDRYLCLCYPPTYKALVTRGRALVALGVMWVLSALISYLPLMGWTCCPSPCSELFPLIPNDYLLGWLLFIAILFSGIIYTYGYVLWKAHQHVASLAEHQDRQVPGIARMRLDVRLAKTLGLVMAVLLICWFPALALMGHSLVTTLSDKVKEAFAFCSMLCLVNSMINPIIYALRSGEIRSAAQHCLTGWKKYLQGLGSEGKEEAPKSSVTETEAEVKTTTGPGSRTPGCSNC
Method: Mouse neuroblastoma cells N18TG2 which selectively express the cannabinoid receptor CB1 and rat leukaemia basophil cells RBL-2H3+ which selectively express the cannabinoid receptor CB2 were used. The cells were cultured as described previously [L. Faci et al. (1995) Proc. Natl. Acad. Sci. U.S.A., 92: 3376-3380; T. Bisogno et al. (1997) J. Biol. Chem., 272: 3315-3323]. [^3H]SR141716A (55 Ci/mmol) was supplied by Amersham; [^3H]WIN55, 212-2(43 Ci/mmol) was supplied by NEN. The binding tests were carried out with membranes of the said cells resuspended in 50 mM pH 7.0 Tris buffer; 2.5 mM mgCl2; 0.8 mM EDTA; 0.05% bovine serum albumin (BSA); 0.01% ethanol and in the presence of 100 μM phenylmethylsulphonyl fluoride (PMSF; sigma) using 300 pM of [^3H]SR141716A and [^3H]WIN55,212-2, respectively, as ligand.
as §2

[8] = biological target: T3, receptor CB1 (Mus musculus, UniProt P47746); assay: Effect on stimulation of cyclic AMP by forskolin in N18TG2 cells; assay type: cell-based; conditions: 1 μM forskolin, 10 min at 37° C.; read-out: IC50, c-AMP stimulated by forskolin, N18TG2 cells
T3 construct: endogenous in cells; host or cells: N18TG2 mouse neuroblastoma cells
Method: The tests were carried out with the aim of checking whether or not the binding of the N-AVAM molecules to the receptor CB1 had any functional significance. […] After incubation, the cells were extracted and the c-AMP levels were evaluated using a suitable kit from Amersham according to the manufacturer's procedure. The data are expressed as IC50, in μM.

[9] = tested on: carrageenan-mediated oedema; assay: Carrageenan-mediated oedema, paw volume; assay type: in vivo; conditions: 5 mg/kg, oral, carrageenan = 100
Method: The method described previously [materials and methods S. Mazzari et al. (1996) Europ. J. Pharmacol., 300: 227-236] were used for the purpose of evaluating the effects of N-AVAM molecules on the hyperreactivity of sensitive nerve cells.
The test compounds were administered orally suspended in physiological saline densified with CMC. The results are expressed as a percentage of variation in the volume of the paw relative to carrageenan.

[10] = tested on: carrageenan-mediated locomotor hyperalgesia; assay type: in vivo
[11] = Solubility (physicochemical properties of the product)
[12] = Homo sapiens, test compound alone 1.0 μM, control = 100, read-out: Proliferative activity %
[13] = membranes, 300 pM [3H]WIN55,212-2, 90 min at 30° C.

T3 sequence (P47746 whole entry): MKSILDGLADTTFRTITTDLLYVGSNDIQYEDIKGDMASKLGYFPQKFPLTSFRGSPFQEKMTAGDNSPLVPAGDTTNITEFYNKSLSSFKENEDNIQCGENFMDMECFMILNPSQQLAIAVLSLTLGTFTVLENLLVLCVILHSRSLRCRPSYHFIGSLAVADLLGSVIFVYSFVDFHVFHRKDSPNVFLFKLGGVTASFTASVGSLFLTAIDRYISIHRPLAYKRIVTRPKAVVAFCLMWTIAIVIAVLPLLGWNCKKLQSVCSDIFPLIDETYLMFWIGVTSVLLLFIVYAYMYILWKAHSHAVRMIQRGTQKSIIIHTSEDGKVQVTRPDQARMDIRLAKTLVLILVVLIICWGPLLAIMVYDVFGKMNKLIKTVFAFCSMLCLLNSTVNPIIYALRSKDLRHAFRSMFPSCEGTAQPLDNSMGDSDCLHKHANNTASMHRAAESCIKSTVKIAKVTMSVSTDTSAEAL
T1 sequence (P47746 whole entry): as above

| Compound | Ki [6] [nM] | Ki [7, 13] [nM] | IC50 [8] [nM] | IC50 [1] [nM] | IC50 [2] [nM] | IC50 [3] [nM] | Solubility in organic solvents, DMSO ([11]; in DMSO) [µg/mL] | Solubility in organic solvents, ethanol [11] [µg/mL] | Solubility in water [11] | other results |
| --- | --- | --- | --- | --- | --- | --- | --- | --- | --- | --- |
| CCCCC/C=C\C/C=C\C/C=C\C/C=C\CCCC(=O)NCCO [Anandamide, reference compound] | – | – | – | – | – | – | – | – | – | IC50 ([1]; Homo sapiens, MCF7): 500 nM; IC50 ([2]; Homo sapiens): 1500 nM; IC50 ([3]; Homo sapiens, T47D): 1900 nM; IC50 ([4]; Homo sapiens, DU-145, prolactin 1 mIU/ml): 500 nM; activity at 1 µM [5, 12]: 84% |
| COc1cc(CNC(=O)CCCC/C=C/C(C)C)ccc1O [Capsaicin, reference compound] | > 10000 | – | – | – | – | – | – | – | – | – |
| CCCCCCCC/C=C\CCCCCCCC(=O)NCc1ccc(O)c(OC)c1 [Example 1, N-(4-hydroxy-3-methoxybenzyl)oleylamide] | 1640 ± 360 | > 15000 | 1600 | 1600 | 700 | 1600 | > 10000 | > 10000 | sparingly soluble | IC50 ([4]; prolactin 1 mIU/ml): 200 to 300 nM; Proliferative activity % ([5]; test compound alone 1.0 μM): 60%; Percentage of variation in the volume of the paw relative to carrageenan ([9]; 60 min): 75%; Percentage of variation in the volume of the paw relative to carrageenan ([9]; 120 min): 70%; Percentage of variation in the volume of the paw relative to carrageenan ([9]; 180 min): 65%; Percentage of variation in the administered weight (hyperalgesia) ([10]; 5 mg/kg, oral, 0 min): 100%; Percentage of variation in the administered weight (hyperalgesia) ([10]; 5 mg/kg, oral, 60 min): 80%; Percentage of variation in the administered weight (hyperalgesia) ([10]; 5 mg/kg, oral, 120 min): 72%; Percentage of variation in the administered weight (hyperalgesia) ([10]; 5 mg/kg, oral, 180 min): 65%; Percentage of variation in the administered weight (hyperalgesia) ([10]; 5 mg/kg, oral, 240 min): 58%; Percentage of variation in the administered weight (hyperalgesia) ([10]; 5 mg/kg, oral, 300 min): 64% |
| CCCCCCCCCCCCCCCC(=O)NCc1ccc(O)c(OC)c1 [Example 2, N-(4-hydroxy-3-methoxybenzyl)-palmitoylamide] | 1750 ± 350 | > 15000 | 1800 | 2100 | 1000 | 800 | > 10000 | > 10000 | sparingly soluble | – |
| CCCCC/C=C\C/C=C\C/C=C\C/C=C\CCCC(=O)NCc1ccc(O)c(OC)c1 [Example 3, N-(4-hydroxy-3-methoxybenzyl)-arachidonoylamide] | 1500 ± 290 | > 15000 | 1300 | 400 | 500 | 300 | > 10000 | > 10000 | sparingly soluble | Proliferative activity % ([5]; test compound alone 0.5 μM): 70%; Proliferative activity % ([5]; test compound alone 1.0 μM): 43% |
| COc1cc(CNC(=O)CCCCCCCC(=O)NCc2ccc(O)c(OC)c2)ccc1O [Example 4, N,N′-bis(4-hydroxy-3-methoxybenzyl)-nonanediamide] | 1200 ± 280 | – | – | – | – | – | – | – | sparingly soluble | solubility ([11]; organic solvent or mixture, in DMSO, read-out: Solubility in organic solvents, DMSO): > 10000 µg/mL |
| CCCCCCCCCCCCCCCC(=O)NCCO [N-palmitoylethanolamine, reference compound] | – | – | – | – | – | – | – | – | – | Ki [7]: 1 ± 0.6 nM; activity at 1 µM [5, 12]: 100%; activity at 2.5 µM ([5]; Homo sapiens, test compound alone 2.5 μM, control = 100, read-out: Proliferative activity %): 100%; activity at 5 µM ([5]; Homo sapiens, test compound alone 5.0 μM, control = 100, read-out: Proliferative activity %): 100%; activity at 10 µM ([5]; Homo sapiens, test compound alone 10 μM, control = 100, read-out: Proliferative activity %): 100%; Percentage of variation in the administered weight (hyperalgesia) ([10]; in vivo): 100% and 82% and 80% and 76% and 64% and 66% |
